Experiments:
[1] = Test 9: sensory evaluation of off-taste level, meatballs; type: in vivo; conditions: effect if average score 1 point or more
Source text: (§1) Meatballs were produced as evaluation samples by the following steps (1) to (6).
(§2) (1) Commercially available ground pork, sodium chloride (manufactured by Naikai Salt Industries Co., Ltd.), and potassium chloride (manufactured by Uji Pharmaceutical Co., Ltd.) were mixed in the ratios shown in Table 25 below, and the mixture was stirred in a stand mixer (“Kitchen Aid”, model: KSM5WH, manufactured by FMI Corporation) until the entire mixture was uniformly mixed. The speed scale of the stand mixer was set to “1”. (2) To the mixture obtained in the above-mentioned (1) were added finely chopped onion, water, salad oil (manufactured by J-OIL MILLS, INC.), potato starch (manufactured by Minami-Tokachi Rationalized Potato Starch Factory), and β-caryophyllene solution or β-caryophyllene oxide solution in the ratios shown in Table 25 below, and the mixture was stirred in the above-mentioned stand mixer (speed scale setting: 1) until the entire mixture was uniformly mixed. The β-caryophyllene solution was prepared by dissolving β-caryophyllene (manufactured by Sigma-Aldrich) in propylene glycol to a concentration of 1000 ppm by weight, and the β-caryophyllene oxide solution was prepared by dissolving β-caryophyllene oxide (manufactured by Penta Manufacturing Company) in propylene glycol to a concentration of 1000 ppm by weight. […]

[2] = Test 9: sensory evaluation of saltiness intensity, meatballs; type: in vivo; conditions: effect if average score 1 point or more
Source text: as §1, §2

C=C1CC[C@H]2O[C@]2(C)CC[C@@H]2[C@@H]1CC2(C)C [β-caryophyllene oxide]
off-taste suppression effect [1]: suppress the off-taste of off-taste substances | saltiness enhancing effect [2]: can enhance the saltiness
